Source: the NIST ThermoML archive (doi:10.1016/j.jct.2017.06.001)

Assay: xn = mol fraction of the nth substance listed
Conditions: 100 kPa, Liquid; for speed of sound: Frequency=5 MHz, Pulse-echo method; for mass density: Vibrating tube method

OCCCCCO [1,5-pentanediol] + O
Conditions	mass density [kg/m3]	speed of sound [m/s]
288.15 K, x1 = 0.005	998.88	–
288.15 K, x1 = 0.0101	999.03	–
288.15 K, x1 = 0.0196	999.79	–
288.15 K, x1 = 0.0251	1000.47	–
288.15 K, x1 = 0.0304	1001.25	–
288.15 K, x1 = 0.05	1003.56	–
288.15 K, x1 = 0.0769	1005.76	–
288.15 K, x1 = 0.1002	1007.25	–
288.15 K, x1 = 0.1438	1008.43	–
288.15 K, x1 = 0.1845	1008.63	–
288.15 K, x1 = 0.206	–	1706.1
288.15 K, x1 = 0.2108	–	1706.3
288.15 K, x1 = 0.2162	–	1706.4
288.15 K, x1 = 0.2177	–	1706.4
288.15 K, x1 = 0.2203	–	1706.5
288.15 K, x1 = 0.2319	–	1706.5
288.15 K, x1 = 0.2402	–	1706.4
288.15 K, x1 = 0.25	–	1706.2
288.15 K, x1 = 0.2503	1007.9	–
288.15 K, x1 = 0.2599	–	1706
288.15 K, x1 = 0.2695	–	1705.6
288.15 K, x1 = 0.283	–	1705
288.15 K, x1 = 0.3	1006.94	–
288.15 K, x1 = 0.3004	–	1704.1
288.15 K, x1 = 0.3171	–	1703
288.15 K, x1 = 0.3343	1006.2	–
288.15 K, x1 = 0.3398	–	1701.4
288.15 K, x1 = 0.3601	–	1699.8
288.15 K, x1 = 0.3882	–	1697.2
288.15 K, x1 = 0.4171	1004.47	–
288.15 K, x1 = 0.4185	–	1694.2
288.15 K, x1 = 0.4484	–	1690.8
288.15 K, x1 = 0.454	1003.59	–
288.15 K, x1 = 0.4755	–	1687.5
288.15 K, x1 = 0.4893	–	1685.8
288.15 K, x1 = 0.5003	1002.5	–
288.15 K, x1 = 0.508	–	1683.4
288.15 K, x1 = 0.5305	–	1680.3
288.15 K, x1 = 0.5362	1001.6	–
288.15 K, x1 = 0.5516	–	1677.4
288.15 K, x1 = 0.5741	–	1674.2
288.15 K, x1 = 0.5932	–	1671.5
288.15 K, x1 = 0.6177	999.9	–
288.15 K, x1 = 0.6187	–	1667.9
288.15 K, x1 = 0.6383	–	1665
288.15 K, x1 = 0.6478	999.3	–
288.15 K, x1 = 0.6592	–	1662.1
288.15 K, x1 = 0.6819	–	1658.9
288.15 K, x1 = 0.7025	998.2	–
288.15 K, x1 = 0.7043	–	1655.7
288.15 K, x1 = 0.7236	–	1653.1
288.15 K, x1 = 0.7443	–	1650.3
288.15 K, x1 = 0.7504	997.4	–
288.15 K, x1 = 0.7647	–	1647.6
288.15 K, x1 = 0.7836	–	1645.2
288.15 K, x1 = 0.7927	996.5	–
288.15 K, x1 = 0.8018	–	1642.8
288.15 K, x1 = 0.8231	–	1640.1
288.15 K, x1 = 0.8417	–	1637.8
288.15 K, x1 = 0.8605	995.2	–
288.15 K, x1 = 0.8609	–	1635.4
288.15 K, x1 = 0.8783	–	1633.2
288.15 K, x1 = 0.8967	–	1630.9
288.15 K, x1 = 0.9004	994.4	–
288.15 K, x1 = 0.9133	–	1628.7
288.15 K, x1 = 0.9388	–	1625.3
288.15 K, x1 = 0.9496	993.3	–
288.15 K, x1 = 0.9515	–	1623.6
288.15 K, x1 = 0.9651	–	1621.7
288.15 K, x1 = 0.9837	–	1618.9
288.15 K, x1 = 1	992.2	1616.4
293.15 K, x1 = 0.0002	–	1483
293.15 K, x1 = 0.0004	–	1483.8
293.15 K, x1 = 0.0005	–	1484.4
293.15 K, x1 = 0.0008	–	1485.6
293.15 K, x1 = 0.0012	–	1487
293.15 K, x1 = 0.0017	–	1489
293.15 K, x1 = 0.0021	–	1490.8
293.15 K, x1 = 0.0029	–	1493.7
293.15 K, x1 = 0.0037	–	1496.8
293.15 K, x1 = 0.0043	–	1499.2
293.15 K, x1 = 0.005	–	1501.8
293.15 K, x1 = 0.0057	–	1504.5
293.15 K, x1 = 0.0064	–	1506.9
293.15 K, x1 = 0.0071	–	1509.3
293.15 K, x1 = 0.0078	–	1511.9
293.15 K, x1 = 0.0085	–	1514.3
293.15 K, x1 = 0.0091	–	1516.7
293.15 K, x1 = 0.0098	–	1519
293.15 K, x1 = 0.0107	–	1522
293.15 K, x1 = 0.0113	–	1524.2
293.15 K, x1 = 0.012	–	1526.6
293.15 K, x1 = 0.0128	–	1529.1
293.15 K, x1 = 0.0136	–	1531.6
293.15 K, x1 = 0.0143	–	1534
293.15 K, x1 = 0.015	–	1536.2
293.15 K, x1 = 0.0158	–	1538.5
293.15 K, x1 = 0.0165	–	1540.7
293.15 K, x1 = 0.0172	–	1543
293.15 K, x1 = 0.018	–	1545.3
293.15 K, x1 = 0.0189	–	1547.8
293.15 K, x1 = 0.0198	–	1550.5
293.15 K, x1 = 0.0206	–	1552.8
293.15 K, x1 = 0.0214	–	1555.3
293.15 K, x1 = 0.0224	–	1557.8
293.15 K, x1 = 0.0232	–	1560.2
293.15 K, x1 = 0.0241	–	1562.7
293.15 K, x1 = 0.0254	–	1566
293.15 K, x1 = 0.0263	–	1568.5
293.15 K, x1 = 0.0276	–	1571.6
293.15 K, x1 = 0.0285	–	1573.9
293.15 K, x1 = 0.0294	–	1576.1
293.15 K, x1 = 0.0302	–	1578.2
293.15 K, x1 = 0.0314	–	1580.8
293.15 K, x1 = 0.0323	–	1583.1
293.15 K, x1 = 0.0333	–	1585.3
293.15 K, x1 = 0.0343	–	1587.6
293.15 K, x1 = 0.0355	–	1590.1
293.15 K, x1 = 0.0368	–	1592.9
293.15 K, x1 = 0.0383	–	1596.3
293.15 K, x1 = 0.0398	–	1599.2
293.15 K, x1 = 0.0408	–	1601.4
293.15 K, x1 = 0.0418	–	1603.3
293.15 K, x1 = 0.0435	–	1606.5
293.15 K, x1 = 0.0451	–	1609.5
293.15 K, x1 = 0.0472	–	1613.3
293.15 K, x1 = 0.0491	–	1616.6
293.15 K, x1 = 0.0506	–	1619.2
293.15 K, x1 = 0.0528	–	1622.7
293.15 K, x1 = 0.0552	–	1626.4
293.15 K, x1 = 0.0569	–	1629
293.15 K, x1 = 0.0599	–	1633.3
293.15 K, x1 = 0.0612	–	1635.1
293.15 K, x1 = 0.0629	–	1637.4
293.15 K, x1 = 0.0645	–	1639.4
293.15 K, x1 = 0.0665	–	1641.9
293.15 K, x1 = 0.0684	–	1644.3
293.15 K, x1 = 0.0711	–	1647.4
293.15 K, x1 = 0.0738	–	1650.3
293.15 K, x1 = 0.077	–	1653.6
293.15 K, x1 = 0.08	–	1656.5
293.15 K, x1 = 0.0837	–	1659.9
293.15 K, x1 = 0.0871	–	1662.8
293.15 K, x1 = 0.0895	–	1664.7
293.15 K, x1 = 0.0944	–	1668.3
293.15 K, x1 = 0.0974	–	1670.4
293.15 K, x1 = 0.1023	–	1673.5
293.15 K, x1 = 0.1068	–	1676.1
293.15 K, x1 = 0.1108	–	1678.1
293.15 K, x1 = 0.1168	–	1680.9
293.15 K, x1 = 0.121	–	1682.7
293.15 K, x1 = 0.1249	–	1684.1
293.15 K, x1 = 0.1295	–	1685.7
293.15 K, x1 = 0.1356	–	1687.5
293.15 K, x1 = 0.1401	–	1688.7
293.15 K, x1 = 0.1445	–	1689.8
293.15 K, x1 = 0.1521	–	1691.3
